Test results as given in publication PMC13308190, “Endothelial progenitor cell susceptibility to DNA damaging and DDR-modulating compounds determines endothelial differentiation accuracy” (Stem Cell Research & Therapy, 2026).

What was measured:
Assay type in all cases: cell-based, mouse
EC d4 [1] = test: ZO1 tight junction immunofluorescence; conditions: EC d4 treated 48 h
mESC = test: Western blot protein expression (densitometry); conditions: mESC 24 h
Method: (§1) Total protein cell extracts were obtained upon sonication in RIPA buffer (EpiShearTM Probe sonicator, Active Motif [La Hulpe, Belgium]). Protein concentrations were determined using the DC Protein Assay (BioRad [Munich, Germany]). Extracts were supplemented with Roti®-Load buffer (Carl Roth GmbH [Karlsruhe, Germany]) followed by heating (95 °C for 5 min). 20 µg of protein was separated by SDS-PAGE and transferred onto nitrocellulose membrane. After blocking (5% non-fat milk in TBS/0.1% Tween 20 or 5% BSA in TBS/0.1% Tween 20) (1 h, RT) membrane was incubated with primary antibodies (1:500–5000; overnight, 4 °C). After washing with TBS/0.1% Tween 20, peroxidase-conjugated secondary antibody (1:2000) was added (2 h, RT) and bands were visualized using ChemiDoxTM Touch imaging system (BioRad, Munich, Germany).

[2] = system: EC d4 (endothelial progenitor cells); test: Western blot protein expression (densitometry); conditions: EC d4 48 h; for CHK1 protein / RAD51 protein / gH2AX protein / p-CHK2 protein / p-KAP1 protein / p-RPA32 protein / p-p53 protein: Fig 5D
Method: as §1

[3] = system: EC d6 (endothelial-like cells); test: Western blot protein expression (densitometry); conditions: EC d6 24 h; for CHK1 protein / RAD51 protein / gH2AX protein / p-CHK2 protein / p-KAP1 protein / p-RPA32 protein / p-p53 protein: Fig 5D
Method: as §1

EC d4 [4] = test: VE-cadherin cell-cell junction immunostaining; conditions: EC d4 treated 48 h
[5] = system: EC d6 (endothelial-like cells); test: RT-qPCR mRNA expression; conditions: for Cdkn1a mRNA / Cdkn2a mRNA / Glb1 mRNA / Il6 mRNA / Il8 mRNA / Tp53 mRNA: Fig 7C
Method: Total RNA was purified using the RNeasy Mini Kit (Qiagen, Hilden, Germany). Reverse transcriptase (RT) reaction was performed with the HighCapacity cDNA Reverse Transcription Kit (Applied Biosystems, Darmstadt, Germany) using 900–2000 ng of RNA. Quantitative RT-qPCR analysis was performed using following conditions: (1) 95 °C–10 min; (2) 45 amplification cycles with 95 °C–15 s, 55 °C–15 s, and 72 °C–17 s; (3) 95 °C–1 min, 55 °C–1 min, 65 °C–5 s. If not stated otherwise, analyses were performed in technical triplicates using pooled samples from two independent experiments (each performed with biological duplicates) by use of a CFX96 cycler (BioRad) and the SensiMix SYBR Kit (Bioline, London, UK). The primers used for mRNA expression analyses are listed in Supplementary Table 1. To ensure the specificity of the amplification product, melting curves were recorded at the end of the run. mRNA expression levels were normalized to β-Actin and Gapdh. Relative mRNA expression in mESC or corresponding untreated controls was set to 1.0. Only changes in gene expression of ≤ 0.5- and ≥ 2-fold were considered as biologically relevant.

[6] = Fig 5D, concentration 1 (Dox 1/B02 1/EST 1)
[7] = Fig 5D, concentration 2 (Dox 2/B02 2/EST 2)
[8] = concentration 1 (Dox 1/B02 1/EST 1)
[9] = concentration 2 (Dox 2/B02 2/EST 2)
[10] = EC d6 + 10 µM 24 h + 24 h post incubation
[11] = EC d6 + 20 µM 24 h + 24 h post incubation

Nc1ccccc1NC(=O)c1ccc(CNC(=O)OCc2cccnc2)cc1 [EST, entinostat]
ZO1 containing tight junctions in EC d6 differentiated from treated EC d4 (EC d4 [1]): did not affect
H3ac protein (mESC; Fig 1D): 16.6 Fold of mESC
H4ac protein (mESC; Fig 1D): 7426.8 Fold of mESC
aTubac (acetylated α-Tubulin) protein (mESC; Fig 1D): 1.0 Fold of mESC
CHK1 protein (mESC; Fig 4H, Eto, Dox 1, B02, EST): 1.0 Fold of mESC
p-ATR protein (mESC; Fig 4H, Eto, Dox 1, B02, EST): 2.9 Fold of mESC
p-CHK1 protein (mESC; Fig 4H, Eto, Dox 1, B02, EST): 0.1 Fold of mESC
p-RPA32 protein (mESC; Fig 4H, Eto, Dox 1, B02, EST): 1.3 Fold of mESC
p-p53 protein (mESC; Fig 4H, Eto, Dox 1, B02, EST): 0.9 Fold of mESC
CHK1 protein (mESC; [6]): 0.8 Fold of mESC
RAD51 protein (mESC; [6]): 1.4 Fold of mESC
gH2AX protein (mESC; [6]): 7.7 Fold of mESC
p-CHK2 protein (mESC; [6]): 1.0 Fold of mESC
p-KAP1 protein (mESC; [6]): 2.9 Fold of mESC
p-RPA32 protein (mESC; [6]): 0.7 Fold of mESC
p-p53 protein (mESC; [6]): 0.9 Fold of mESC
CHK1 protein (mESC; [7]): 0.7 Fold of mESC
RAD51 protein (mESC; [7]): 1.4 Fold of mESC
gH2AX protein (mESC; [7]): 10.1 Fold of mESC
p-CHK2 protein (mESC; [7]): 1.0 Fold of mESC
p-KAP1 protein (mESC; [7]): 8.2 Fold of mESC
p-RPA32 protein (mESC; [7]): 0.7 Fold of mESC
p-p53 protein (mESC; [7]): 0.8 Fold of mESC
AMPKa protein (mESC; Fig 6E): 0.5 Fold of mESC
GSK3b protein (mESC; Fig 6E): 1.2 Fold of mESC
p-p70SK protein (mESC; Fig 6E): 0.8 Fold of mESC
H3ac protein ([2]; Fig 1D): 4.6 Fold of mESC
H4ac protein ([2]; Fig 1D): 1853.2 Fold of mESC
aTubac (acetylated α-Tubulin) protein ([2]; Fig 1D): 0.9 Fold of mESC
CHK1 protein [2, 8]: 0.7 Fold of mESC
RAD51 protein [2, 8]: 1.0 Fold of mESC
gH2AX protein [2, 8]: 9.1 Fold of mESC
p-CHK2 protein [2, 8]: 0.6 Fold of mESC
p-KAP1 protein [2, 8]: 0.0 Fold of mESC
p-RPA32 protein [2, 8]: 0.8 Fold of mESC
p-p53 protein [2, 8]: 0.4 Fold of mESC
CHK1 protein [2, 9]: 1.0 Fold of mESC
RAD51 protein [2, 9]: 0.9 Fold of mESC
gH2AX protein [2, 9]: 8.9 Fold of mESC
p-CHK2 protein [2, 9]: 0.9 Fold of mESC
p-KAP1 protein [2, 9]: 0.0 Fold of mESC
p-RPA32 protein [2, 9]: 0.9 Fold of mESC
p-p53 protein [2, 9]: 0.5 Fold of mESC
AMPKa protein ([2]; Fig 6E): 0.5 Fold of mESC
GSK3b protein ([2]; Fig 6E): 2.3 Fold of mESC
p-p70SK protein ([2]; Fig 6E): 1.6 Fold of mESC
H3ac protein ([3]; Fig 1D): 7.8 Fold of mESC
H4ac protein ([3]; Fig 1D): 4083.7 Fold of mESC
aTubac (acetylated α-Tubulin) protein ([3]; Fig 1D): 1.0 Fold of mESC
CHK1 protein [3, 8]: 0.6 Fold of mESC
RAD51 protein [3, 8]: 0.6 Fold of mESC
gH2AX protein [3, 8]: 1.3 Fold of mESC
p-CHK2 protein [3, 8]: 0.5 Fold of mESC
p-KAP1 protein [3, 8]: 0.0 Fold of mESC
p-RPA32 protein [3, 8]: < 0.1 Fold of mESC
p-p53 protein [3, 8]: 0.3 Fold of mESC
CHK1 protein [3, 9]: 0.2 Fold of mESC
RAD51 protein [3, 9]: 0.1 Fold of mESC
gH2AX protein [3, 9]: 0.1 Fold of mESC
p-CHK2 protein [3, 9]: 0.3 Fold of mESC
p-KAP1 protein [3, 9]: 0.0 Fold of mESC
p-RPA32 protein [3, 9]: < 0.1 Fold of mESC
p-p53 protein [3, 9]: 0.3 Fold of mESC
AMPKa protein ([3]; Fig 6E): 0.7 Fold of mESC
GSK3b protein ([3]; Fig 6E): 1.7 Fold of mESC
p-p70SK protein ([3]; Fig 6E): 0.7 Fold of mESC
VE-cadherin cell-cell junctions in EC d6 differentiated from treated EC d4 (EC d4 [4]): did not trigger defects
Cdkn1a mRNA [5, 10]: 1.91 Fold of untreated control
Cdkn2a mRNA [5, 10]: 1.85 Fold of untreated control
Glb1 mRNA [5, 10]: 3.60 Fold of untreated control
Il6 mRNA [5, 10]: 1.19 Fold of untreated control
Il8 mRNA [5, 10]: 0.24 Fold of untreated control
Tp53 mRNA [5, 10]: 0.82 Fold of untreated control
Cdkn1a mRNA [5, 11]: 2.49 Fold of untreated control
Cdkn2a mRNA [5, 11]: 2.02 Fold of untreated control
Glb1 mRNA [5, 11]: 5.40 Fold of untreated control
Il6 mRNA [5, 11]: 2.47 Fold of untreated control
Il8 mRNA [5, 11]: 0.48 Fold of untreated control
Tp53 mRNA [5, 11]: 0.96 Fold of untreated control
Brca1 mRNA ([5]; EC d6 + 20 µM 24 h, Fig 5C): 0.19 Fold of mESC
Chk1 mRNA ([5]; EC d6 + 20 µM 24 h, Fig 5C): 0.44 Fold of mESC
Rad51 mRNA ([5]; EC d6 + 20 µM 24 h, Fig 5C): 0.11 Fold of mESC
Pgc1a mRNA ([5]; EC d6 + 20 µM 24 h, Fig 6D): 5.75 Fold of untreated control
Cldn5 mRNA ([5]; EC d6 + 20 µM 24 h, Fig 8C): 2.16 Fold of EC d4 or d6
Ocln mRNA ([5]; EC d6 + 20 µM 24 h, Fig 8C): 1.62 Fold of EC d4 or d6
Tjp1 mRNA ([5]; EC d6 + 20 µM 24 h, Fig 8C): 1.46 Fold of EC d4 or d6
